Like-named read-outs stand apart in the source and are kept apart here. Blank lines part the entries; values can stand above or below the compound they belong to.
What was measured:
PSMA [1] = target: T1, PSMA (Homo sapiens, UniProt Q04609); test: Competitive binding on LNCaP cell membranes with [131I]I-MIP1095 as competitive radioligand; details: [131I]I-MIP1095 radioligand, 2 h at 37 °C
T1 construct: host or cells: LNCaP cell membranes
Procedure: Cells from prostate cancer carcinomas: LNCaP and PC3, were isolated like previously described. The cells were harvested using 1 mL/flask of Trypsin-EDTA solution and centrifuged (1500 rpm for 15 min (LNCaP) and 1300 rpm for 6 min (PC3)). Received cell sediment was resuspended in 9.7 mM NaHCO3 containing 0.3 mM NaH2PO4 and incubated for 30 min at 4 °C. The solution was dispensed on 1.5 mL Eppendorf and centrifuged (13,500 rpm for 30 min). The supernatant was removed, the pellet was resuspended in 50 mM Tris-HCl Buffer (pH 7.4) and homogenized using a syringe with a thin needle. The solution was centrifuged (13,500 rpm for 30 min), and the final pellet was suspended in 50 mM Tris-HCl buffer (pH 7.4) and transferred to −70 °C.
The LNCaP cell membranes were distributed (in four replicates) in the constant amount on special MultiScreen™ 96 well assay plates. 100 µL of un-supplemented RPMI 1640 medium and 50 µL of increasing concentration of the unlabeled PSMA inhibitors was added to each well. As a control, 50 µL of PBS in 100 µL of media was used. After 15 min incubation at 37 °C, 50 µL of [^131I]I-MIP-1095 was added. Plates were incubated for 2 h at 37 °C. After an appropriate time, the supernatant solution was filtered under vacuum, and the membranes were washed twice with PBS solution. Filters and membranes were extruded to the tubes using MultiScreen Multiple Punch. The radioactivity of the filters was measured using a Wallac Wizard 1470 γ counter. The IC50 was evaluated and determined using GraphPad Prism 9.4 statistic program. As a control, PSMA-11 was used.

PSMA [2] = target: PSMA; parameters: method as in PMID 24983957; details: cited from earlier work
PSMA [3] = system: PSMA; parameters: method as in PMID 28450562; details: affinity for PSMA ref 53; cited from earlier work

T1 sequence (Q04609 whole entry): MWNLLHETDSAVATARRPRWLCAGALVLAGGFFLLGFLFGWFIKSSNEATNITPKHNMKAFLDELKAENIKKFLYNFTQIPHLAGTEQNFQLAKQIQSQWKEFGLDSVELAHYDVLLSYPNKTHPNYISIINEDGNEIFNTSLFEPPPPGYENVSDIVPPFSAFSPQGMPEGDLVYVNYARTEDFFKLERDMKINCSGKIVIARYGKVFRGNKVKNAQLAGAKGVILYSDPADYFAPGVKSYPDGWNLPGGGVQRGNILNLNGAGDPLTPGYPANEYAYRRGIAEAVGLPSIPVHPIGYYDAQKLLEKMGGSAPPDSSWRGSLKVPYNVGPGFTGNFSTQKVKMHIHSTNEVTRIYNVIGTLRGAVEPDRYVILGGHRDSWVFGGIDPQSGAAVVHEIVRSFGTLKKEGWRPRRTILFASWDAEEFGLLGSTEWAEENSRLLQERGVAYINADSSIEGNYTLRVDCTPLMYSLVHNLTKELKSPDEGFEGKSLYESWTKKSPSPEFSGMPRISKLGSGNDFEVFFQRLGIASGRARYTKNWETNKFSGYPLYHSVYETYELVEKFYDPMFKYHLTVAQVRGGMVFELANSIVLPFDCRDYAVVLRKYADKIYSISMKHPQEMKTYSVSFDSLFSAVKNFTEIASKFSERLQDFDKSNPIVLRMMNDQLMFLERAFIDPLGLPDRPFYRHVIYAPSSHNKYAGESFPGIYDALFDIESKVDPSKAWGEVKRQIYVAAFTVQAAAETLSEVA

SMILES: O=C(O)CCc1ccc(O)c(CN(CCN(CC(=O)O)Cc2cc(CCC(=O)NCCCCCC(=O)NCCCC[C@H](NC(=O)N[C@@H](CCC(=O)O)C(=O)O)C(=O)O)ccc2O)CC(=O)O)c1 [PSMA-11]
IC50 (PSMA [1]): 715 nM
Kd (PSMA [2]): 11.4 nM

SMILES: NNc1ccc(C(=O)NCCCCCC(=O)N[C@@H](Cc2c[nH]c3ccccc23)C(=O)NCCCC[C@H](NC(=O)N[C@@H](CCC(=O)O)C(=O)O)C(=O)O)cn1 [PSMA-T3, Glu-CO-Lys-LTrp-6Ahx-HYNIC]
IC50 (PSMA [1]): 74.6 nM

IC50 (PSMA [1]): 79.5 nM
SMILES: NNc1ccc(C(=O)NC[C@H]2CC[C@H](C(=O)N[C@@H](Cc3c[nH]c4ccccc34)C(=O)NCCCC[C@H](NC(=O)N[C@@H](CCC(=O)O)C(=O)O)C(=O)O)CC2)cn1 [PSMA-T4, (S)-2-{3-[(S)-5-[(S)-3-(1H-Indol-3-yl)-2-({(1r,4r)-4-[(6-hydrazino-nicotinoylamino)methyl]cyclohexyl}carbonylamino)propionylamino]-1-carboxypentyl]ureido}glutaric acid]

SMILES: O.O=C([O-])CN(CCN(CC(=O)[O-])Cc1cc(CCC(=O)O)ccc1O)Cc1cc(CCC(=O)NCCCCCC(=O)NCCCC[C@H](NC(=O)N[C@@H](CCC(=O)O)C(=O)O)C(=O)O)ccc1[O-].[Ga+3] [[^68Ga]Ga-PSMA-11, Glu-NH-CO-Lys-(ahx)-HBED-CC-[^68Ga]Ga]
Kd (PSMA [2]; literature value ref 15): 11.4 ± 7.1 nM

SMILES: O=C(O)CC[C@H](NC(=O)N[C@@H](CCCCNC(=O)Nc1ccc([131I])cc1)C(=O)O)C(=O)O [[^131I]I-MIP-1095, (2S)-2-({[(1S)-1-carboxy-5-({[4-[¹³¹I]iodophenyl]carbamoyl}amino)pentyl]carbamoyl}amino)pentanedioic acid]
IC50 (PSMA [3]): 0.3 nM
